This is an account of results in ChEMBL document CHEMBL5316303, “[1,2,4]Triazolo[3,4-b]benzothiazole Scaffold as Versatile Nicotinamide Mimic Allowing Nanomolar Inhibition of Different PARP Enzymes” (J Med Chem, 2023).

Data set [1] has as its target T1, Protein mono-ADP-ribosyltransferase PARP10 (Homo sapiens, UniProt Q53GL7).
T1 sequence (Q53GL7 whole entry): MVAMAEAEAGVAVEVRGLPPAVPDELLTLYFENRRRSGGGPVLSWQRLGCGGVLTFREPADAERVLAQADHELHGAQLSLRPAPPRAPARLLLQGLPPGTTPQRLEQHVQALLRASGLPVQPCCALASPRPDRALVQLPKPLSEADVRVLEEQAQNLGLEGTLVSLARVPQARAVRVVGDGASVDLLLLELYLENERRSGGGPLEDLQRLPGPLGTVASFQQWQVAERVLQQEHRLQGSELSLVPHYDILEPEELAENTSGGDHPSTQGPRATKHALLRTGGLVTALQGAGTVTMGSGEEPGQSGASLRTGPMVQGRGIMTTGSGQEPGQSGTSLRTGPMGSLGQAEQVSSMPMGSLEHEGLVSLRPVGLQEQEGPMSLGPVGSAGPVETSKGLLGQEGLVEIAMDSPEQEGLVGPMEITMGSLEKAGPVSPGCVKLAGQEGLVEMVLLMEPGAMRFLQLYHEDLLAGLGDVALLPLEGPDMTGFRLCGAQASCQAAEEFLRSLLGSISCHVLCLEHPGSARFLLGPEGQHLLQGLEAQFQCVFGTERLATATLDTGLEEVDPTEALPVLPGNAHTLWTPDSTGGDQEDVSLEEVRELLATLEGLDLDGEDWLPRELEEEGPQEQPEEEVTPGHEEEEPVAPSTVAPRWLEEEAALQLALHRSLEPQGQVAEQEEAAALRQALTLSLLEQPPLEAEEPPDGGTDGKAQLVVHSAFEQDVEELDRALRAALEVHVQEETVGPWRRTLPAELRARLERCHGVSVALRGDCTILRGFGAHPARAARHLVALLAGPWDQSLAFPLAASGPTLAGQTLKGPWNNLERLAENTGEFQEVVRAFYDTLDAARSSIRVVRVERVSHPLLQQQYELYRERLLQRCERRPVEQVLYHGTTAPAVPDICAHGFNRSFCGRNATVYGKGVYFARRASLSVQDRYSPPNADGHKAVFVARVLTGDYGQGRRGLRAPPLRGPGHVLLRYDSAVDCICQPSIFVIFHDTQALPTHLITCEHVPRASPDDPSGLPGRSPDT
As to the kind of experiment: Inhibition of N-terminal MBP tagged/C-terminal PARP10 (unknown origin) expressed in Escherichia coli in presence of NAD+.

For data set [2], the target named is T2, Protein mono-ADP-ribosyltransferase PARP15 (Homo sapiens, UniProt Q460N3).
T2 sequence (Q460N3 whole entry): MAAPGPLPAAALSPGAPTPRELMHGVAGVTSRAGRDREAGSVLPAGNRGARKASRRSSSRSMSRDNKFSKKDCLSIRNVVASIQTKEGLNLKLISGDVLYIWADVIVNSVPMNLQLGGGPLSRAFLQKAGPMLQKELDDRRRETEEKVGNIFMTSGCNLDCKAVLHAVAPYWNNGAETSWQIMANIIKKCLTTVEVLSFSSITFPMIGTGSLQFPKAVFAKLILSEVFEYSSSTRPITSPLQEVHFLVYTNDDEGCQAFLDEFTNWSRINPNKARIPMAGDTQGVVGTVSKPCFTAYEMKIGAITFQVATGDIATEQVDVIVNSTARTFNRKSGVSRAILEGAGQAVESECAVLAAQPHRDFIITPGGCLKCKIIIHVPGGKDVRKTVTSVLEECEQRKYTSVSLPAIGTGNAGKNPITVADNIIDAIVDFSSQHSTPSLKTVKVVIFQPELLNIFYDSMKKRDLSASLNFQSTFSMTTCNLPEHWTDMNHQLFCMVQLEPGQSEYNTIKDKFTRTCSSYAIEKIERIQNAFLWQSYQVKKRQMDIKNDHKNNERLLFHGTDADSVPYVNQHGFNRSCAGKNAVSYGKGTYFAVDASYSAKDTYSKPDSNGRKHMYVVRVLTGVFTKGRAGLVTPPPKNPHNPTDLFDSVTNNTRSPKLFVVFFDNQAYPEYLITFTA
Briefly: Inhibition of N-terminal MBP tagged/C-terminal PARP15 (unknown origin) expressed in Escherichia coli in presence of NAD+.

The subject of another data set is HEK-293T. As to the kind of experiment: Cytotoxicity in […] cells at 10 to 100 uM measured after 24 hrs by WST-1 based colorimetric assay. Format: toxicity, cell-based. As to conditions: human, dose 10-100 µM. A general note: Formazan colour is commonly taken as a measure of viable cells; call rule not given here.
Data set [3] is described as follows: Stability of the compound in MeOH measured upto 24 hrs by UV/LC-MS analysis. Format: physicochemical.
Data set [4] is described as follows: Stability of the compound in PBS buffer at pH 7.4 measured upto 24 hrs by UV/LC-MS analysis. Format: physicochemical. As to conditions: pH 7.4, 24 h.
A short description of data set [5]: Stability in human plasma measured upto 24 hrs by UV/LC-MS analysis. The data set is classed as ADME, cell-free.
Data set [6] concerns the target T3, Protein mono-ADP-ribosyltransferase TIPARP (Homo sapiens, UniProt Q7Z3E1).
T3 sequence (Q7Z3E1 whole entry): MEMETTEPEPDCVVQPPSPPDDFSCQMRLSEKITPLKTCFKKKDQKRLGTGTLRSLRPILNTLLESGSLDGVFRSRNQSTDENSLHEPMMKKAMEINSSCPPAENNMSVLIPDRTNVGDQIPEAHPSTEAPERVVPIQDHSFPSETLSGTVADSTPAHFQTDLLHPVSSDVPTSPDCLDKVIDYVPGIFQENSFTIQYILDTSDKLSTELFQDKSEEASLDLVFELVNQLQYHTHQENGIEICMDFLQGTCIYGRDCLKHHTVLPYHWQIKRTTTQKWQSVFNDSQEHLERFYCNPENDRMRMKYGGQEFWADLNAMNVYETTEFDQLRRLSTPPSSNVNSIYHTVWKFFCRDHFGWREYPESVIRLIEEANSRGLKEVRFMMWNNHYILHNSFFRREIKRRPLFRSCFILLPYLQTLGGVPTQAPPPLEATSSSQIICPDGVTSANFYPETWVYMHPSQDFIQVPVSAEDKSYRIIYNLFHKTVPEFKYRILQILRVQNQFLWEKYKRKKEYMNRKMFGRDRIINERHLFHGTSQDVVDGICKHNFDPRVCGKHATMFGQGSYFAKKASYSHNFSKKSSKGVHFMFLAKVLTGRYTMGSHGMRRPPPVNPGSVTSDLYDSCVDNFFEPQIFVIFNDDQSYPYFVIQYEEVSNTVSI
As to the kind of experiment: Inhibition of N-terminal MBP tagged/C-terminal PARP7 (unknown origin) expressed in Escherichia coli in presence of NAD+ by proximity enhanced assay.

The target of data set [7] is Protein mono-ADP-ribosyltransferase PARP6 (Homo sapiens, UniProt Q2NL67). Briefly: Inhibition of N-terminal 6 His-MBP tagged human PARP6 expressed in Sf21 cells incubated for 18 hrs in presence of NAD+.
Chain of Protein mono-ADP-ribosyltransferase PARP6 (Q2NL67 whole entry): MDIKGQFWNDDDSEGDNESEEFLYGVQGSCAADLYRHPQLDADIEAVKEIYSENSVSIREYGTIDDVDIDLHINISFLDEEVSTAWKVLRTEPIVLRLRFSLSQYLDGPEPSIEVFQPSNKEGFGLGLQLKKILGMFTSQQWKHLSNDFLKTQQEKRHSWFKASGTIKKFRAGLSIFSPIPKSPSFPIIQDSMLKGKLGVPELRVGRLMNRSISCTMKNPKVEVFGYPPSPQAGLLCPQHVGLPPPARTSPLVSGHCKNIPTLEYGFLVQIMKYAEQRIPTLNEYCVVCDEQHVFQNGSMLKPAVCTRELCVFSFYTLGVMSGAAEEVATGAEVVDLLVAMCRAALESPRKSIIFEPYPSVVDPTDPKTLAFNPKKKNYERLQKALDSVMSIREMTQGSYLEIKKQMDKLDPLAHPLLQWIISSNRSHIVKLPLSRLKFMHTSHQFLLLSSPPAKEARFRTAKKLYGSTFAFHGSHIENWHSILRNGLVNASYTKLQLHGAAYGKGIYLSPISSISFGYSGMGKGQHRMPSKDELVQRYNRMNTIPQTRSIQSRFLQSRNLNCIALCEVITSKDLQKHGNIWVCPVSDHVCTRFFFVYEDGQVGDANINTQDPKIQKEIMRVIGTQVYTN

Consider `COc1ccc(OC)c2c1sc1nnc(S)n12`, for which the IC50 result in data set [1] and in data set [2] was “Not Active” throughout.

As for `COc1ccc(OC)c2c1sc1nnc(NC(=O)c3ccc(Cl)cc3)n12`, in data set [1], the IC50 entry is recorded as “Not Active”.

For `COc1ccc(OC)c2c1sc1nnc(N)n12`, in the data set with HEK-293T, the Activity result is listed as “Non-Toxic”. The Stability in data set [3], in data set [4] and in data set [5] was over 24 h throughout.

As for `Oc1ccc2c(c1)sc1nncn12`, the Activity result in the data set on HEK-293T was “Non-Toxic”. For the same molecule, the Stability in data set [3], in data set [4] and in data set [5] was over 24 h throughout. Also, the IC50 entry in data set [6] and in data set [7] was “Not Active” throughout.

With `COc1ccc(OC)c2c1sc1nnc(NC(=O)C(C)(C)C)n12`, the IC50 entry in data set [1] and in data set [2] was “Not Active” in each case.

On to `Cc1ccc2c(c1)sc1nnc(NCc3ccc(Cl)cc3)n12`, for which the IC50 result in data set [1] is recorded as “Not Active”.

`COc1ccc(OC)c2c1sc1nnc(NC(C)=O)n12`: the IC50 result in data set [1] and in data set [2] was “Not Active” each time.

Turning to `Oc1ccc(O)c2c1sc1nncn12`, in the data set on HEK-293T, the Activity entry is “Toxic”.

In the case of `COc1ccc(OC)c2c1sc1nnc(SC)n12`, the IC50 result in data set [1] and in data set [2] was “Not Active” in each case.

For the molecule `Cc1ccc2c(c1)sc1nnc(N)n12`, the Activity entry with HEK-293T is “Non-Toxic”. Further, the Stability in data set [3], in data set [4] and in data set [5] was over 24 h throughout.

Turning to `CC(C)c1ccc2c(c1)sc1nncn12`, the Activity result with HEK-293T is given as “Toxic”.
